Reference: publication PMC9971101, “Comparison of Five Near-Infrared Fluorescent Folate Conjugates in an Ovarian Cancer Model” (Molecular Imaging and Biology, 2021)

Tests used:
[1] = system: Skov-3 subcutaneous xenografts; assay: In vivo biodistribution and optimal time point FLI in subcutaneous Skov-3 xenograft model (IVIS Spectrum); parameters: species or system NOD-scid IL2Rg^null mice; conditions: for tumour to background ratio (TBR): mean ± SD; for excretion route: mice
Description: (§1) All applicable institutional and/or national guidelines for the care and use of animals were followed. All experiments were approved by The Norwegian Animal Research Authority and conducted according to The European Convention for the Protection of Vertebrates Used for Scientific Purposes (Application ID 14128). NOD-scid IL2Rg^null mice (referred to as NSG) were housed in groups of ≤ 5 in individually ventilated cages changed twice per month and kept in a 12-h […] schedule at 21 °C at the Vivarium, University of Bergen. Observations for general condition and body weights were recorded twice per week and, when indicated, the animals were euthanised according to institutional guidelines. Skov-3 and A549 subcutaneous xenografts were established through bi-lateral flank injections of 5 × 10^6 cells, resuspended in 100 μL PBS containing 16.7% Matrigel (Corning Inc., MA, USA). Tumour volumes were measured weekly with a digital calliper and calculated using the ellipsoid volume formula: Volume = π (length × width × height)/6.
For biodistribution assessment of conjugates 1–5, mice were intravenously (iv) injected with 100 μL of a 10-μM conjugate solution when mean tumour volumes reached ≈150 mm^3, corresponding to a dose of […]. The dose was chosen on the basis of preclinical mouse models previously performed using folate-NIR (OTL38) FLI [28]. To determine the timepoint for the optimal TBR, optical imaging was performed at 0 h, 0.5 h, 1 h, 2 h, 4 h, 6 h, 8 h, 24 h and 48 h using the IVIS Spectrum. Fluorescence signals were analysed with the Living Imaging® software v4.5 (PerkinElmer Inc.) and expressed as average radiance (p/s/cm^2/sr). Regions of interest (ROI) were manually drawn around the subcutaneous tumours in the flanks and the adjacent tissue to calculate TBRs at all time points. Next, subcutaneous xenograft models were imaged at the pre-determined optimal time points, which were 4 h for conjugates 1, 2 and 3 and 24 h for conjugates 4 and 5.

[2] = Fluorescence spectroscopy (excitation and emission spectra); format: physicochemical
Description: The spectral characteristics of the conjugates 1–5 were determined using a Spark 20M plate reader (Tecan, Switzerland). The emission and excitation of all conjugates were measured in triplicates with a bandwidth of 5 nm in a 96-well Half-Area Microplate at a concentration of 100 μM dissolved in phosphate buffered saline (PBS). The fluorescence intensity was plotted as normalised relative fluorescence units (RFU).
Using conjugates 1–5, we evaluated how the conjugation of the different fluorophores to EDAF (Fig. 1a) affected the optical properties. To do so, we defined their individual excitation and emission spectra, and determined the optimal FLI parameters. The different conjugates (Fig. 1b) were diluted in medium or in DMSO and the peak excitation and emission obtained are reported in Table 1, Fig. 1c and Fig. S17.

[3] = system: Skov-3 and A549 subcutaneous xenografts; assay: Ex vivo tumour and organ biodistribution (IVIS Spectrum and FLARE intraoperative system); format: in vivo, NOD-scid IL2Rg^null mice; conditions: for ex vivo fluorescence signal in tumours (FLARE): Skov-3 tumour; for ex vivo fluorescence in the kidneys (FLARE): exposure time 1000 ms
Description: as §1
Organ biodistribution was assessed ex vivo for each conjugate in Skov-3 and in the control cell line, A549. Four hours after iv administration of 1, 2 and 3 and 24 h after injection of 4 and 5 (100 μl, 10 μM), mice were euthanised and tumours and organs were harvested. FLI was performed with the IVIS Spectrum, and subsequently, fluorescence was acquired using the FLARE® intraoperative system (Curadel LLC), employing the NIR channel #2 (λex = 760 ± 3 nm and λem = > 781 nm longpass) at three different exposure times (500, 1000 and 2000 ms) at a gain of 1. IVIS Spectrum data were analysed as previously described, and FLARE data were analysed using ImageJ (Fiji, version 1.52p, [29]) and the integrated FLARE analysis platform using grey scale values expressed in arbitrary units (AU).

[4] = system: Skov-3 and A549 subcutaneous xenografts; assay: In vivo FLI at optimal time points, Skov-3 versus A549 xenografts (target specificity); parameters: species or system NOD-scid IL2Rg^null mice; conditions: 4 h after iv injection, p < 0.05
Description: as §1, with “Skov-3 and A549 subcutaneous xenografts were established through bi-lateral flank injections of 5 × 10^6 cells, resuspended in 100 μL PBS containing 16.7% Matrigel (Corning Inc., MA, USA).” left out
For biodistribution assessment of conjugates 1–5, mice were intravenously (iv) injected with 100 μL of a 10-μM conjugate solution when mean tumour volumes reached ≈150 mm^3, corresponding to a dose of 500 nmol/mouse. […] Fluorescence signals were analysed with the Living Imaging® software v4.5 (PerkinElmer Inc.) and expressed as average radiance (p/s/cm^2/sr). […] Next, subcutaneous xenograft models were imaged at the pre-determined optimal time points, which were 4 h for conjugates 1, 2 and 3 and 24 h for conjugates 4 and 5.

[5] = 4 h after iv injection, Skov-3 subcutaneous xenograft
[6] = 8 h after iv injection, Skov-3 subcutaneous xenograft
[7] = 4 h after iv injection, exposure time 2000 ms
[8] = 24 h after iv injection, Skov-3 subcutaneous xenograft
[9] = 24 h after iv injection, exposure time 2000 ms
[10] = Skov-3 xenografted mice, 24 h after iv injection

Row | SMILES | excretion route ([1]; iv injection) | Stokes shift ([2]; DMSO) [nm] | λem ([2]; DMSO) [nm] | λex ([2]; DMSO) [nm] | Stokes shift ([2]; culture medium) [nm] | λem ([2]; culture medium) [nm] | λex ([2]; culture medium) [nm] | ex vivo organ accumulation (IVIS Spectrum) ([3]; 24 h after iv injection) | ex vivo fluorescence in the kidneys (FLARE) [3, 10] [AU] | tumour to background ratio (TBR) [1, 5] | tumour to background ratio (TBR) [1, 6] | residual fluorescence in healthy organs in vivo ([1]; 24 h after iv injection) | ex vivo fluorescence signal in tumours (FLARE) [3, 7] [AU] | tumour to background ratio (TBR) [1, 8] | ex vivo fluorescence signal in tumours (FLARE) [3, 9] [AU] | also measured
1 | CC1(C)C(/C=C/C=C/C=C/C=C2\N(CCCCCC(=O)NCCNC(=O)CC[C@H](NC(=O)c3ccc(NCc4cnc5nc(N)[nH]c(=O)c5n4)cc3)C(=O)O)c3ccc4ccccc4c3C2(C)C)=[N+](CCCCS(=O)(=O)[O-])c2ccc3ccccc3c21 [Conjugate 4, 4-(2-((1E,3E,5E,7Z)-7-(3-(6-((2-((S)-4-(4-(((2-amino-4-oxo-3,4-dihydropteridin-6-yl)methyl)amino)benzamido)-4-carboxybutanamido)ethyl)amino)-6-oxohexyl)-1,1-dimethyl-1,3-dihydro-2H-benzo[e]indol-2-ylidene)hepta-1,3,5-trien-1-yl)-1,1-dimethyl-1H-benzo[e]indol-3-ium-3-yl)butane-1-sulfonate] | hepatobiliary excretion | 42 | 832 | 790 | 36 | 820 | 784 | mainly in the liver | 100.4 ± 37.8 |  |  |  |  | 1.0 ± 0.1 | 56.4 ± 4.1 | tumour to background ratio (TBR) ([1]; 0.5 h after iv injection, Skov-3 subcutaneous xenograft): 1.3 ± 0.3; accumulation in tumours ([1]; Skov-3 subcutaneous xenograft, iv injection): no accumulation in tumours; ex vivo fluorescence intensity in the liver (FLARE) ([3]; Skov-3 xenografted mice, 24 h after iv injection, exposure time 2000 ms): 283.3 ± 38.7 AU
2 | C[N+]1=C(/C=C/C2=C(Cl)C(=C/C=C3/N(CCCCCC(=O)NCCNC(=O)CC[C@H](NC(=O)c4ccc(NCc5cnc6nc(N)[nH]c(=O)c6n5)cc4)C(=O)O)c4ccccc4C3(C)C)/CCC2)C(C)(C)c2ccccc21 [Conjugate 5, 2-((E)-2-((E)-3-(2-((E)-1-(6-((2-((S)-4-(4-(((2-amino-4-oxo-3,4-dihydropteridin-6-yl)methyl)amino)benzamido)-4-carboxybutanamido)ethyl)amino)-6-oxohexyl)-3,3-dimethylindolin-2-ylidene)ethylidene)-2-chlorocyclohex-1-en-1-yl)vinyl)-1,3,3-trimethyl-3H-indol-1-ium] | hepatobiliary excretion | 24 | 820 | 796 | 15 | 804 | 789 | in the stomach | 63.9 ± 11.3 |  |  |  |  | 2.1 ± 0.6 | 60.9 ± 6.3 | time at which tumour fluorescence became evident ([1]; post-injection, Skov-3 subcutaneous xenograft): 4 h

Further lines, with some results ahead:

Row | excretion route ([1]; iv injection) | Stokes shift ([2]; DMSO) [nm] | λem ([2]; DMSO) [nm] | λex ([2]; DMSO) [nm] | Stokes shift ([2]; culture medium) [nm] | λem ([2]; culture medium) [nm] | λex ([2]; culture medium) [nm] | ex vivo organ accumulation (IVIS Spectrum) ([3]; 24 h after iv injection) | ex vivo fluorescence in the kidneys (FLARE) [3, 10] [AU] | SMILES | tumour to background ratio (TBR) [1, 5] | tumour to background ratio (TBR) [1, 6] | residual fluorescence in healthy organs in vivo ([1]; 24 h after iv injection) | ex vivo fluorescence signal in tumours (FLARE) [3, 7] [AU] | tumour to background ratio (TBR) [1, 8] | ex vivo fluorescence signal in tumours (FLARE) [3, 9] [AU] | also measured
3 | renally cleared | 24 | 816 | 792 | 25 | 802 | 777 |  |  | CC1(C)C(/C=C/C2=C(Oc3ccc(CCC(=O)NCCNC(=O)CC[C@H](NC(=O)c4ccc(NCc5cnc6nc(N)[nH]c(=O)c6n5)cc4)C(=O)O)cc3)C(=C/C=C3/N(CCC[N+](C)(C)C)c4ccc(S(=O)(=O)O)cc4C3(C)C)/CCC2)=[N+](CCC[N+](C)(C)C)c2ccc(S(=O)(=O)O)cc21 [Conjugate 1, 2-((E)-2-((E)-2-(4-(3-((2-((S)-4-(4-(((2-amino-4-oxo-3,4-dihydropteridin-6-yl)methyl)amino)benzamido)-4-carboxybutanamido)ethyl)amino)-3-oxopropyl)phenoxy)-3-(2-((E)-3,3-dimethyl-5-sulfonato-1-(3-(trimethylammonio)propyl)indolin-2-ylidene)ethylidene)cyclohex-1-en-1-yl)vinyl)-3,3-dimethyl-1-(3-(trimethylammonio)propyl)-3H-indol-1-ium-5-sulfonate] | 1.9 ± 0.3 | 2.0 ± 0.4 | residual fluorescence signal in the kidneys | 156.9 ± 22.0 |  |  | 
4 | renally cleared | 28 | 802 | 774 | 28 | 788 | 760 |  |  | CC1(C)C(/C=C/C2=C(c3ccc(CCC(=O)NCCNC(=O)CC[C@H](NC(=O)c4ccc(NCc5cnc6nc(N)[nH]c(=O)c6n5)cc4)C(=O)O)cc3)C(=C/C=C3/N(CCC[N+](C)(C)C)c4ccc(S(=O)(=O)O)cc4C3(C)C)/CCC2)=[N+](CCC[N+](C)(C)C)c2ccc(S(=O)(=O)O)cc21 [Conjugate 2, 2-((E)-2-((E)-4'-(3-((2-((S)-4-(4-(((2-amino-4-oxo-3,4-dihydropteridin-6-yl)methyl)amino)benzamido)-4-carboxybutanamido)ethyl)amino)-3-oxopropyl)-6-(2-((E)-3,3-dimethyl-5-sulfonato-1-(3-(trimethylammonio)propyl)indolin-2-ylidene)ethylidene)-3,4,5,6-tetrahydro-[1,1'-biphenyl]-2-yl)vinyl)-3,3-dimethyl-1-(3-(trimethylammonio)propyl)-3H-indol-1-ium-5-sulfonate] | 1.8 ± 0.2 | 2.0 ± 0.2 |  | 213.1 ± 51.0 |  |  | difference in average radiance between Skov-3 and A549 tumours [4]: significant difference; time that the fluorescence signal in Skov-3 tumours was sustained ([1]; after iv injection, last imaging time point 48 h): up to 48 h
5 | renally cleared | 28 | 826 | 798 | 25 | 808 | 783 |  |  | CC1(C)C(/C=C/C2=C(Oc3ccc(S(=O)(=O)O)cc3)C(=C/C=C3/N(CCCCS(=O)(=O)O)c4ccc(S(=O)(=O)[O-])cc4C3(C)C)/CCC2)=[N+](CCCCCC(=O)NCCNC(=O)CC[C@H](NC(=O)c2ccc(NCc3cnc4nc(N)[nH]c(=O)c4n3)cc2)C(=O)O)c2ccc(S(=O)(=O)O)cc21 [Conjugate 3, 1-(6-((2-((S)-4-(4-(((2-amino-4-oxo-3,4-dihydropteridin-6-yl)methyl)amino)benzamido)-4-carboxybutanamido)ethyl)amino)-6-oxohexyl)-2-((E)-2-((E)-3-(2-((E)-3,3-dimethyl-5-sulfonato-1-(4-sulfonatobutyl)indolin-2-ylidene)ethylidene)-2-(4-sulfonatophenoxy)cyclohex-1-en-1-yl)vinyl)-3,3-dimethyl-3H-indol-1-ium-5-sulfonate] | 1.2 ± 0.2 | 1.4 ± 0.3 | residual fluorescence signal in the kidneys | 189.7 ± 27.1 |  |  | ex vivo fluorescence in the kidneys (FLARE) ([3]; Skov-3 xenografted mice, 4 h after iv injection): 913.6 ± 248.9 AU
